Reference: patent US20250064945A1 (Arvinas Operations, Inc., priority 2021, published 2025)
Counter-ions that a name gives are not always drawn.

Target: T1, BRM (Homo sapiens, UniProt P51531)
T1 construct: In-Cell Western Screen of BRM Degradation in SW1573 Cells; endogenous in cells; host or cells: SW1573 cells
Assay: Western blot / In-Cell Western screen of BRM degradation in SW1573 cells
Format: cell-based
Conditions: overnight (18-20 hours) treatment; for Dmax: read-out: Dmax (%) (% degraded)
Method: Western Blot Screen of BRM Degradation in SW1573 Cells
(§1) To assess BRM degradation (Dmax and DC50) cells were seeded at 8000/well in 96-well black/clear-bottom plates in 180 μL DMEM growth media (containing 1% pen-strep, 1% HEPES and 10% FBS) per well. Plates were incubated overnight to allow adhesion. The next morning cells were treated by adding 20 μL of 10× target compound concentration (1% DMSO) to appropriate wells and returned to incubator for overnight (18-20 hours). The final DMSO concentration was 0.1%.
For lysing, adherent cells were washed once with 100 μL of DPBS. Cells were lysed in 40 μL of 1× RIPA+HALT protease inhibitor on ice for 10 minutes and frozen until use at −80° C. Thawed lysates were cleaned by filtration in 1.2 µm filter plates, or alternatively, were spun clean at 2300 g at 4° C. for 30 minutes.
For blotting, for each Western sample 30 μL of lysate was added to 10 μL of 4×LDS sample buffer, then denatured at 95° C. for 5 minutes in the thermal cycler and placed on ice. Samples were loaded on 4-15% Tris/Glycine gels and run for 25 minutes at 250 constant volts in 1×Tris/Glycine buffer with 4 μL of ladder and 12 μL of each sample loaded for each blot. Protein was transferred from gels to NC with BioRad Turbo dry-transfer unit with the Turbo/midi default program. All blots were rinsed with ddH2O and blocked for 1 hour at room temperature in 5% BSA in TBST (0.1%) on rocker. Blots were exposed to primary antibody in 5% BSA in TBST (0.1%) overnight at 4° C. on rocker (1:1000 for BRM (Cell Signaling Tech. cat #11966) and 1:2000 for alpha-tubulin (Cell Signaling Tech. cat #3873), a control protein. Blot was washed with TBST (0.1%) three times for 5 minutes on rocker at room temperature. Secondary antibody was added, and blots were incubated on a room temperature rocker for 1 hour with 1:18,000 anti-rabbit-HRP and/or anti-mouse-HRP in 5% BSA in TBST (0.1%). Blots were washed three times in TBST (0.1%) for 5 minutes at room temperature on the rocker. Signal was developed with Femto Maximum Sensitivity substrate for 4 minutes and blots read on ChemiDoc™.
In-Cell Western Screen of BRM Degradation in SW1573 Cells
as §1, with “DC50),” for “DC50)”, “10×” for “10× target”, “compound” for “compound concentration”
For processing, the plates were removed from incubator, the media was removed, and immediately 200 μL of cold (4° C.) DPBS was added to all wells. DPBS was then removed, and 50 μL of 4% paraformaldehyde (PFA) in DPBS (4° C.) was added to all wells, and the plates were incubated at room temperature for 20 minutes. PFA was then removed, and 200 μL of TBS-T containing 0.5% Triton X-100 was added to all wells, and the plates were incubated at room temperature for 30 minutes. TBS-T containing 0.5% Triton X-100 was then removed, and 50 μL of Li-Cor blocking solution was added, and the plates were incubated at room temperature for a minimum of one hour. The blocking solution was removed, and 50 μL of Li-Cor blocking solution containing primary antibody cocktail was added (1:1000 for BRM (Cell Signaling Tech. cat #11966) and 1:2000 for alpha-tubulin (Sigma cat #T6074), a control protein. Plates were then placed in cold room until the next day.
The next day plates were washed three times with TBS-T, 200 μL per well. Fifty […] of secondary antibody cocktail in LI-COR blocking solution (anti-rabbit_800 nm and anti-mouse_680 nm) was added to all wells (diluted 1:5000). The plates were incubated at room temperature for at least one hour while protected from light. The plates were washed twice with TBS-T, 200 μL per well. […]

T1 sequence (P51531 whole entry): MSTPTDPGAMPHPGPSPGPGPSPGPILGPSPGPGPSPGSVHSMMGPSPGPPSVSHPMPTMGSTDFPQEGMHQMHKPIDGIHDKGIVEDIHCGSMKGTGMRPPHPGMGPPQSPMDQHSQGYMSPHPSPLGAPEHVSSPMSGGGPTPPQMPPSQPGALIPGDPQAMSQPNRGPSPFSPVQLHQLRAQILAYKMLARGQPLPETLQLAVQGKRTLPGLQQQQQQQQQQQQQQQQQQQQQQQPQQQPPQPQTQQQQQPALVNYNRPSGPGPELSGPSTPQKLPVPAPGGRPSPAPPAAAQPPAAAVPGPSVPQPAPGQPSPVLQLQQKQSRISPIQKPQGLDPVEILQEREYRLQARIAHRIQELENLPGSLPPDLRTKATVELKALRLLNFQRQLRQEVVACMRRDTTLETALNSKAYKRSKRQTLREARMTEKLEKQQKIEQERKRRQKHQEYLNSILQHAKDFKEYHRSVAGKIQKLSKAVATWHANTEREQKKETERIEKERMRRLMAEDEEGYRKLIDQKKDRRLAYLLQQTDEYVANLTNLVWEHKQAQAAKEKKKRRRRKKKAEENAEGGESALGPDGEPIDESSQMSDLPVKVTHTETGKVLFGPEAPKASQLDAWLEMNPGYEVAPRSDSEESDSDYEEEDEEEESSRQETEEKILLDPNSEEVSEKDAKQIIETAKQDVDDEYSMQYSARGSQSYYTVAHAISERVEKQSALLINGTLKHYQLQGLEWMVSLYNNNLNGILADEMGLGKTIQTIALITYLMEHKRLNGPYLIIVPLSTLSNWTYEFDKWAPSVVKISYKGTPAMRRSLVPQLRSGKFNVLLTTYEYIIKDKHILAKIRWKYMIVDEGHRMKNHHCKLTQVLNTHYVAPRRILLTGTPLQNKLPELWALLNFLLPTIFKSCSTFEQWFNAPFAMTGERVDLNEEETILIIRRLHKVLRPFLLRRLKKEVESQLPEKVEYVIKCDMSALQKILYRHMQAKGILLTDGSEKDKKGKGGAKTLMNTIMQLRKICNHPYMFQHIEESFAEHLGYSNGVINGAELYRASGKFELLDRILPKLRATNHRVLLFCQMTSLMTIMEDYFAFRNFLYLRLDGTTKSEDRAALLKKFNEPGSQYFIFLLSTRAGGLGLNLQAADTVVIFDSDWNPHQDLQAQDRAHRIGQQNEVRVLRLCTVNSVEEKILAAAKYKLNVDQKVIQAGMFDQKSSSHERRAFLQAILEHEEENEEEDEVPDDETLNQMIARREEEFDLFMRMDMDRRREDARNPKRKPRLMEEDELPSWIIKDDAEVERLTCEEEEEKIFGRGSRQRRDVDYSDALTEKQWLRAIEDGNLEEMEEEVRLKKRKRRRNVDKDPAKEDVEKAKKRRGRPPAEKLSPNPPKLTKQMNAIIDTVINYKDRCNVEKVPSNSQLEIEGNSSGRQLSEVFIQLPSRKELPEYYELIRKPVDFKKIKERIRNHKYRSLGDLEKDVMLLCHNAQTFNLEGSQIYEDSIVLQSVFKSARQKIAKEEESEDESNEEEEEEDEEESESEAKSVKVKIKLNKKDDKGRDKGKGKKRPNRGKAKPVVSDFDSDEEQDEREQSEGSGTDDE

Structure (SMILES)	DC50 [nM]	Dmax [%]
Cc1ncsc1-c1ccc([C@H](C)NC(=O)[C@@H]2C[C@@H](O)CN2C(=O)[C@H](c2cc(OCCN3CCN(CCOc4cc(N5CCN(c6cc(-c7ccccc7O)nnc6N)CC56COC6)ccn4)CC3)no2)C(C)C)cn1 [Compound 16, (2S,4R)-1-[(2S)-2-{3-[2-(4-{2-[(4-{8-[3-amino-6-(2-hydroxyphenyl)pyridazin-4-yl]-2-oxa-5,8-diazaspiro[3.5]nonan-5-yl}pyridin-2-yl)oxy]ethyl}piperazin-1-yl)ethoxy]-1,2-oxazol-5-yl}-3-methylbutanoyl]-4-hydroxy-N-[(1S)-1-[6-(4-methyl-1,3-thiazol-5-yl)pyridin-3-yl]ethyl]pyrrolidine-2-carboxamide]	≥ 30	–
CC(C)[C@@H](C(=O)N1C[C@H](O)C[C@H]1C(=O)N[C@@H](C)c1ccc(C#N)cc1)c1cc(OCCN2CCC(O[C@H]3C[C@@H](Oc4cc(N5CCN(c6cc(-c7ccccc7O)nnc6N)CC56COC6)ccn4)C3)CC2)no1 [Compound 24, (2S,4R)-N-[(1S)-1-(4-cyanophenyl)ethyl]-4-hydroxy-1-[(2R)-3-methyl-2-[3-(2-{4-[(1r,3r)-3-[(4-{8-[3-amino-6-(2-hydroxyphenyl)pyridazin-4-yl]-2-oxa-5,8-diazaspiro[3.5]nonan-5-yl}pyridin-2-yl)oxy]cyclobutoxy]piperidin-1-yl}ethoxy)-1,2-oxazol-5-yl]butanoyl]pyrrolidine-2-carboxamide]	< 2.5	> 75
Cc1ncsc1-c1ccc([C@H](C)NC(=O)[C@@H]2C[C@@H](O)CN2C(=O)[C@@H](c2cc(N3CCC(CN4CCC5(CC4)CC(N4CCO[C@@H](CN6CCOC7(CCCN(c8cc(-c9ccccc9O)nnc8N)C7)C6)C4)C5)CC3)no2)C(C)C)cc1 (stereo partly drawn) [Compound 22, (2S,4R)-1-[(2R)-2-{3-[4-({2-[(2S)-2-({8-[3-amino-6-(2-hydroxyphenyl)pyridazin-4-yl]-1-oxa-4,8-diazaspiro[5.5]undecan-4-yl}methyl)morpholin-4-yl]-7-azaspiro[3.5]nonan-7-yl}methyl)piperidin-1-yl]-1,2-oxazol-5-yl}-3-methylbutanoyl]-4-hydroxy-N-[(1S)-1-[4-(4-methyl-1,3-thiazol-5-yl)phenyl]ethyl]pyrrolidine-2-carboxamide]	< 2.5	> 75
Cc1ncsc1-c1ccc([C@H](C)NC(=O)[C@@H]2C[C@@H](O)CN2C(=O)[C@@H](c2cc(N3CCC(CN4CCC(O[C@H]5C[C@H](C#Cc6cn7cc(-c8ccccc8O)nc7nc6N)C5)CC4)CC3)no2)C(C)C)cc1 [Compound 28, (2S,4R)-4-hydroxy-N-[(1S)-1-[4-(4-methyl-1,3-thiazol-5-yl)phenyl]ethyl]-1-[(2R)-3-methyl-2-{3-[4-({4-[(1r,3r)-3-(2-[7-amino-2-(2-hydroxyphenyl)imidazo[1,2-a]pyrimidin-6-yl]ethynyl}cyclobutoxy]piperidin-1-yl}methyl)piperidin-1-yl]-1,2-oxazol-5-yl}butanoyl]pyrrolidine-2-carboxamide]	< 2.5	> 75
Cc1cnn(C)c1-c1ccc([C@H](C)NC(=O)[C@@H]2C[C@@H](O)CN2C(=O)[C@@H](c2cc(N3CCC(CN4CCC(O[C@H]5C[C@H](C#Cc6cn7cc(-c8ccccc8O)nc7nc6N)C5)CC4)CC3)no2)C(C)C)cc1 [Compound 40, (2S,4R)-N-[(1S)-1-[4-(1,4-dimethyl-1H-pyrazol-5-yl)phenyl]ethyl]-4-hydroxy-1-[(2R)-3-methyl-2-{3-[4-({4-[(1r,3r)-3-{2-[7-amino-2-(2-hydroxyphenyl)imidazo[1,2-a]pyrimidin-6-yl]ethynyl}cyclobutoxy]piperidin-1-yl}methyl)piperidin-1-yl]-1,2-oxazol-5-yl}butanoyl]pyrrolidine-2-carboxamide]	2.5 to 10	> 75
CC(C)[C@@H](C(=O)N1C[C@H](O)C[C@H]1C(=O)N[C@@H](C)c1ccc(-c2ccnn2C)cc1)c1cc(N2CCC(CN3CCC(O[C@H]4C[C@H](n5cc(-c6cn7cc(-c8ccccc8O)nc7nc6N)cn5)C4)CC3)CC2)no1 [Compound 41, (2S,4R)-4-hydroxy-N-[(1S)-1-[4-(1-methyl-1H-pyrazol-5-yl)phenyl]ethyl]-1-[(2R)-3-methyl-2-{3-[4-({4-[(1r,3r)-3-{4-[7-amino-2-(2-hydroxyphenyl)imidazo[1,2-a]pyrimidin-6-yl]-1H-pyrazol-1-yl}cyclobutoxy]piperidin-1-yl}methyl)piperidin-1-yl]-1,2-oxazol-5-yl}butanoyl]pyrrolidine-2-carboxamide]	< 2.5	> 75
Cc1ncsc1-c1ccc([C@H](C)NC(=O)[C@@H]2C[C@@H](O)CN2C(=O)[C@@H](c2cc(N3CCC(O[C@H]4C[C@H](OCC#Cc5cn6cc(-c7ccccc7O)nc6nc5N)C4)CC3)no2)C(C)C)cc1 [Compound 35, formate]	2.5 to 10	> 75
Cc1nccn1-c1ccc([C@H](C)NC(=O)[C@@H]2C[C@@H](O)CN2C(=O)[C@@H](c2cc(OCCN3CCN(CCOc4cc(N5CCN(c6cc(-c7ccccc7O)nnc6N)CC56COC6)ccn4)CC3)no2)C(C)C)cc1 [Compound 20, (2S,4R)-1-[(2R)-2-{3-[2-(4-{2-[(4-{8-[3-amino-6-(2-hydroxyphenyl)pyridazin-4-yl]-2-oxa-5,8-diazaspiro[3.5]nonan-5-yl}pyridin-2-yl)oxy]ethyl}piperazin-1-yl)ethoxy]-1,2-oxazol-5-yl}-3-methylbutanoyl]-4-hydroxy-N-[(1S)-1-[4-(2-methyl-1H-imidazol-1-yl)phenyl]ethyl]pyrrolidine-2-carboxamide]	2.5 to 10	> 75
Cc1ncsc1-c1ccc([C@H](C)NC(=O)[C@@H]2C[C@@H](O)CN2C(=O)[C@@H](c2cc(N3CCC(CN4CCC(O[C@H]5C[C@H](Cn6cnc(-c7cn8cc(-c9ccccc9O)nc8nc7N)c6)C5)CC4)CC3)no2)C(C)C)cc1 [Compound 43, (2S,4R)-4-hydroxy-N-[(1S)-1-[4-(4-methyl-1,3-thiazol-5-yl)phenyl]ethyl]-1-[(2R)-3-methyl-2-{3-[4-({4-[(1r,3r)-3-({4-[7-amino-2-(2-hydroxyphenyl)imidazo[1,2-a]pyrimidin-6-yl]-1H-imidazol-1-yl}methyl)cyclobutoxy]piperidin-1-yl}methyl)piperidin-1-yl]-1,2-oxazol-5-yl}butanoyl]pyrrolidine-2-carboxamide]	2.5 to 10	> 75
Cc1ncsc1-c1ccc([C@H](C)NC(=O)[C@@H]2C[C@@H](O)CN2C(=O)[C@@H](c2cc(N3CCC(CN4CCC(O[C@H]5C[C@H](n6ccnc6CN6C7CCC6CN(c6cc(-c8ccccc8O)nnc6N)C7)C5)CC4)CC3)no2)C(C)C)cc1 [Compound 8, (2S,4R)-4-hydroxy-N-[(1S)-1-[4-(4-methyl-1,3-thiazol-5-yl)phenyl]ethyl]-1-[(2R)-3-methyl-2-{3-[4-({4-[(1r,3r)-3-[2-({3-[3-amino-6-(2-hydroxyphenyl)pyridazin-4-yl]-3,8-diazabicyclo[3.2.1]octan-8-yl}methyl)-1H-imidazol-1-yl]cyclobutoxy]piperidin-1-yl}methyl)piperidin-1-yl]-1,2-oxazol-5-yl}butanoyl]pyrrolidine-2-carboxamide]	< 2.5	> 75
